Data on two compounds can be found in patent US10087142B2, “Azetidine derivatives useful as modulators of cortical cathecolaminergic neurotransmission” (Integrative Research Laboratories Sweden AB, priority 2015, dated 2018).

The structures appear in SMILES notation. Like-named read-outs stand apart in the source and are kept apart here. Marks after values point to notes of the source that are not given here.

Test [1] deals with monoamine transmitters (NA, DA and 5-HT). The experiment in a line: In vivo brain microdialysis of monoamines in striatum and frontal cortex. As to conditions: 50 μmol/kg s.c., rats; for response vs control in vivo at 50 µmol/kg: Rattus norvegicus, sc. Also on record: species or system rat. The text has this: The microdialysis technique (See, for instance, Collin and Ungerstedt, Microdialysis: user's guide, Carnegie Medicin, Stockholm, 1988) is a well-established technique for measuring extracellular levels of neurotransmitters (Ungerstedt, J Int Med, 1991, 230; 365-73). The microdialysis technique was used to measure the effect of compounds disclosed herein upon the efflux of monoamine transmitters (NA, DA and 5-HT) in striatum and frontal cortex in conscious, freely moving rats.
Male Sprague-Dawley rats weighing 280-320 g were used throughout the experiments. Before the experiment the animals were housed in groups, maximum five animals in each cage, with free access to water and food. The animals were housed at least one week prior to surgery and use in the experiments.
A modified version (Waters et al., J Neural Transm Gen Sect, 1994, 98(1); 39-55) of the I-shaped probe (Santiago and Westerink, N-S Arch Pharmacol, 1990, 342; 407-14) with the AN69 polyacrylonitrile/sodium methyl sulfonate copolymer (HOSPAL; o.d/i.d. 310/220 μm: dialysis membrane (Gambro, Lund, Sweden) was used in the microdialysis experiments. In the dorsal striatum, probes with an exposed length of 3 mm of dialysis membrane were used and in the prefrontal cortex the corresponding length was 2.5 mm. The rats were operated under isoflurane inhalation anesthesia while mounted into a Kopf stereotaxic instrument. Coordinates were calculated relative to bregma; dorsal striatum AP+1.0, ML±2.6, DV 6.2; Pf cortex, AP 15+3.2, ML+1.2, DV −4.08°, according to Paxinos and Watson (New York, Academic Press, 1986; FIG. 8 and FIG. 14). The dialysis probe was positioned in a burr hole under stereotaxic guidance and cemented with phosphatine dental cement (DAB Dental).
The rats were housed individually in cages for 48 h before the dialysis experiments, allowing them to recover from surgery and minimizing the risk of drug interactions with the anesthetics during the following experiments. During this period the rats had free access to food and water.
On the day of the experiment the rats were connected to a micro-perfusion pump via a swivel and were replaced in the cage where they could move freely within its confinements. The perfusion medium was a Ringer's solution containing (in mmol/I): NaCl; 140, CaCl2; 1.2, KCl; 3.0, MgCl2; 1.0 (Moghaddam and Bunney. Neurochem., 1989, 53; 652-4). The pump was set to a perfusion speed of 2 μl/min and 40 μl sample volume were collected every 20 min.
The rats were perfused for at least 40 min before sampling began. Five fractions of each 20 min were collected and the last three were used for the establishment of the baseline. After collection of baseline fractions, the pharmacological challenge to the dialysis experiment started. Test compounds were administrated by injection (s.c.) in a volume of 5 ml/kg, with 0.9% NaCl (saline) as vehicle.
The analytical method were based on two chromatographic separations dedicated for amines or acids. Two chromatographic systems shared a common auto injector with a 10-port valve and two sample loops for simultaneous injection on the two systems.
The acids were separated by reversed phase chromatography while the amines were separated by reversed phase ion pairing chromatography preceded by a reverse phase separation in a column switching configuration. Three separation columns (Luna C18 (2), dp 3 μm, 2 mm i.d., Phenomenex) of different lengths were used. Electrochemical detection was accomplished on glassy carbon electrodes (MF-1000, Bioanalytical Systems, Inc.)
The aqueous mobile phase (0.6 ml/min) for the acid system contained citric acid (40 mM, dipotassium hydrogen phosphate 10 mM, methanol 8-11% (v/v) and EDTA 0.1 mM. Column length was 30 mm and detection potential relative to Ag/AgCl reference was 0.74V. […]

Test [2] has as its system non-pre-treated Sprague-Dawley rats. Kind of test: Locomotor activity in drug-naïve rats (behaviour test). The test is classed as in vivo, rat. The conditions noted are these: recorded 60 minutes, n = 5. The protocol: The effect of compounds in the present disclosure on locomotor activity in drug-naïve rats was also investigated. The animals were placed in the motility meters immediately after drug administration and locomotor activity was recorded for 60 minutes (counts/60 min±SEM). The results are presented as percent of control.
Behavioural activity was measured using eight Digiscan activity monitors (RXYZM (16) TAO, Omnitech Electronics, Columbus, Ohio, USA), connected to an Omnitech Digiscan analyzer and an Apple Macintosh computer equipped with a digital interface board (NB DIO-24, National Instruments, USA). Each activity monitor consisted of a quadratic metal frame (W×L=40 cm×40 cm) equipped with photo beam sensors. During measurements of behavioural activity, a rat was put in a transparent acrylic cage (W×L×H, 40×40×30 cm) which in turn was placed in the activity monitor. Each activity monitor was equipped with three rows of infrared photo beam sensors, each row consisting of 16 sensors. Two rows were placed along the front and the side of the floor of the cage, at a 90° angle, and the third row was placed 10 cm above the floor to measure vertical activity. Photo beam sensors were spaced 2.5 cm apart. Each activity monitor was fitted in an identical sound and light attenuating box containing a weak house light and a fan.
The computer software was written using object oriented programming (LabVIEW™, National instruments, Austin, Tex., USA).
Behavioural data from each activity monitor, representing the position (horizontal center of gravity and vertical activity) of the animal at each time, were recorded at a sampling frequency of 25 Hz and collected using a custom written LABView™ application. The data from each recording session were stored and analyzed with respect to distance traveled. Each behavioural recording session lasted 60 min, starting approximately 5 min after the injection of test compound.
Compounds disclosed herein have been tested for effects on spontaneous locomotor activity in non-pre-treated Sprague-Dawley rats (based on accumulated distance traveled 0-60 min post dosing), and with doses up to 33 μmol/kg (s.c.).

In another test the test system is DOPAC. Kind of test: Neurochemistry: tissue levels of DOPAC in brain regions. As to conditions: 33 μmol/kg s.c., rats, 65 min before sacrifice, n = 5. In kind it is in vivo, rat. The text has this: The change in turnover of dopamine in the terminal areas of the ascending dopaminergic projections of the mammalian brain can be illustrated by measuring of changes in biochemical indices in the brain e.g. changes in concentrations of dopamine metabolites such as 3,4-dihydroxyphenyl-acetic acid (DOPAC) in the striatum and frontal cortex.
The measurement of the tissue content of DOPAC is well established in the field of research since the 1960's. In short, male Sprague-Dawley rats are administered the test compound 60 minutes prior to decapitation. The brain is rapidly taken out and dissected. The striatum is rapidly frozen and subsequently quantitatively analyzed with respect to its content of DOPAC by means of HPLC and electrochemical detection. The number of animals used for each test compound/vehicle is 5/group.
After the behavioural activity sessions, the rats were decapitated and their brains rapidly taken out and put on an ice-cold petri-dish. The brains were dissected into a right and a left part of which the right part was analyzed for neurochemicals with HPLC and the left part was analyzed for gene expression. The limbic forebrain, the striatum, the frontal cortex, the hippocampus and the remaining hemispheral parts of each rat were dissected and frozen. Each brain part was subsequently analyzed with respect to its content of monoamines and their metabolites.
The monoamine transmitter substances (NA (noradrenaline), DA (dopamine), 5-HT (serotonin)) as well as one corresponding acid, (DOPAC (3,4-dihydroxyphenylacetic acid), were quantified in brain tissue homogenates by HPLC separations and electrochemical detection.
The analytical method is based on two chromatographic separations dedicated for amines or acids. Two chromatographic systems share a common auto injector with a 10-port valve and two sample loops for simultaneous injection on the two systems. Both systems are equipped with a reverse phase column (Luna C18 (2), dp 3 μm, 50*2 mm i.d., Phenomenex) and electrochemical detection is accomplished at two potentials on glassy carbon electrodes (MF-1000, Bioanalytical Systems, Inc.). The column effluent is passed via a T-connection to the detection cell or to a waste outlet. This is accomplished by two solenoid valves, which block either the waste or detector outlet. By preventing the chromatographic front from reaching the detector, better detection conditions are achieved. The aqueous mobile phase (0.4 ml/min) for the acid system contains citric acid 14 mM, sodium citrate 10 mM, Methanol 15% (v/v) and EDTA 0.1 mM. Detection potentials relative to Ag/AgCl reference are 0.45 and 0.60V. […] Detection potentials relative to Ag/AgCl reference are 0.45 and 0.65V.

Consider `Cl.Fc1cccc(C(F)C2CNC2)c1F` (single isomer, unassigned; (+)) [Example 2, (+)-3-[(2,3-Difluorophenyl)(Fluoro)Methyl]Azetidine Hydrochloric Acid Salt], for which, in test [1] (frontal cortex dialysate), the “5-HT FC ± SEM, maximum effect compared to baseline” value is reported as 253 ± 92^b percent of control. Further, in test [1] (striatum dialysate), the “5-HT Stri ± SEM, maximum effect compared to baseline” value was 249 ± 5^b percent of control; the “DA Stri ± SEM, maximum effect compared to baseline” value is 149 ± 7^b percent of control; the “NA Stri ± SEM, maximum effect compared to baseline” value is listed as 126 ± 7^b percent of control. In addition, the response vs control in vivo at 50 µmol/kg in test [1] (frontal cortex dialysate, read-out: DA FC ± SEM, maximum effect compared to baseline) was found to be 580 ± 223%. In test [1] (frontal cortex dialysate, read-out: NA FC ± SEM, maximum effect compared to baseline), the response vs control in vivo at 50 µmol/kg amounted to 394 ± 273%. The “locomotor activity, percent of control means” value in test [2] (11 μmol/kg s.c.) is listed as 152%. Moreover, the “locomotor activity, percent of control means” value in test [2] (33 μmol/kg s.c.) was found to be 159%*.
As to `Fc1ccc(F)c(C(F)C2CNC2)c1.O=C(O)C(=O)O` (centres unmarked) [Example 6, 3-[(2,5-Difluorophenyl)(Fluoro)Methyl]Azetidine Oxalate Salt], the “NA Stri ± SEM, maximum effect compared to baseline” value in test [1] (striatum dialysate) is 1375^a percent of control. Further, the response vs control in vivo at 50 µmol/kg in test [1] (frontal cortex dialysate, read-out: 5-HT FC ± SEM, maximum effect compared to baseline) is 182 ± 12%; in test [1] (striatum dialysate, read-out: 5-HT Stri ± SEM, maximum effect compared to baseline) it was 208%; in test [1] (striatum dialysate, read-out: DA Stri ± SEM, maximum effect compared to baseline), 242%. Moreover, in the test on DOPAC (frontal cortex tissue), the “DOPAC frontal cortex ± SEM” value is 139 ± 10% of control means. Further, the “DOPAC striatum ± SEM” value with DOPAC (striatum tissue) is reported as 76 ± 3% of control means.
